# Test system: 186277-243-T-J2-PDC multi-cell spheroid viability
# Assay: Anticancer human tumor 186277-243-T-J2-PDC patient-derived colon adenocarcinoma cell line growth inhibition [PI3K]
# Settings: for IC50: curve of first compound; for viability, T/C: stronger effect = lower value
# Method in brief: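 Targeted small molecules plus PI3K inhibitors, half-log dose series from Cmax (default top 10 microM), were applied to heterotypic spheroids of cancer cells with HUVEC and MSCs. Viability indicated growth inhibition.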
# [1] = second compound 0.0316 µM, first compound 0.0316 µM
# [2] = second compound 0.0316 µM, first compound 0.1 µM
# [3] = second compound 0.0316 µM, first compound 0.316 µM
# [4] = second compound 0.0316 µM, first compound 1 µM
# [5] = second compound 0.0316 µM, first compound 3.16 µM
# [6] = second compound 0.0316 µM, first compound 10 µM
# [7] = second compound 0.1 µM, first compound 0.0316 µM
# [8] = second compound 0.1 µM, first compound 0.1 µM
# [9] = second compound 0.1 µM, first compound 0.316 µM
# [10] = second compound 0.1 µM, first compound 1 µM
# [11] = second compound 0.1 µM, first compound 3.16 µM
# [12] = second compound 0.1 µM, first compound 10 µM
# [13] = second compound 0.316 µM, first compound 0.0316 µM
# [14] = second compound 0.316 µM, first compound 0.1 µM
# [15] = second compound 0.316 µM, first compound 0.316 µM
# [16] = second compound 0.316 µM, first compound 1 µM
# [17] = second compound 0.316 µM, first compound 3.16 µM
# [18] = second compound 0.316 µM, first compound 10 µM
# [19] = second compound 1 µM, first compound 0.0316 µM
# [20] = second compound 1 µM, first compound 0.1 µM
# [21] = second compound 1 µM, first compound 0.316 µM
# [22] = second compound 1 µM, first compound 1 µM
# [23] = second compound 1 µM, first compound 3.16 µM
# [24] = second compound 1 µM, first compound 10 µM
# [25] = second compound 0.00316 µM, first compound 0.0316 µM
# [26] = second compound 0.00316 µM, first compound 0.1 µM
# [27] = second compound 0.00316 µM, first compound 0.316 µM
# [28] = second compound 0.00316 µM, first compound 1 µM
# [29] = second compound 0.00316 µM, first compound 3.16 µM
# [30] = second compound 0.00316 µM, first compound 10 µM
# [31] = second compound 0.01 µM, first compound 0.0316 µM
# [32] = second compound 0.01 µM, first compound 0.1 µM
# [33] = second compound 0.01 µM, first compound 0.316 µM
# [34] = second compound 0.01 µM, first compound 1 µM
# [35] = second compound 0.01 µM, first compound 3.16 µM
# [36] = second compound 0.01 µM, first compound 10 µM
# 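Note: spheroids exposed to compounds for seven days before viability reading.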
# 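Throughout, for viability, T/C: 100% = DMSO vehicle control viability.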
structure (smiles),measurement,setting,value
Cn1cnc2c(F)c(Nc3ccc(Br)cc3Cl)c(C(=O)NOCCO)cc21 + CC(Nc1ccc2c(c1)OCCn1cc(N3C(=O)OCC3C(F)F)nc1-2)C(N)=O,IC50,second compound 0.00316 µM,115 nM
same,IC50,second compound 0.01 µM,77.8 nM
same,IC50,second compound 0.0316 µM,39.4 nM
same,IC50,second compound 0.1 µM,11.9 nM
same,IC50,second compound 0.316 µM,< 9.49 nM
same,IC50,second compound 1 µM,< 9.49 nM
same,"viability, T/C","second compound 0.00316 µM, first compound 0.00949 µM",97.2%
same,"viability, T/C","second compound 0.00316 µM, first compound 0.03 µM",83%
same,"viability, T/C","second compound 0.00316 µM, first compound 0.0949 µM",47.7%
same,"viability, T/C","second compound 0.00316 µM, first compound 0.3 µM",36.6%
same,"viability, T/C","second compound 0.00316 µM, first compound 0.949 µM",14.2%
same,"viability, T/C","second compound 0.00316 µM, first compound 3 µM",8.95%
same,"viability, T/C","second compound 0.01 µM, first compound 0.00949 µM",101%
same,"viability, T/C","second compound 0.01 µM, first compound 0.03 µM",79.8%
same,"viability, T/C","second compound 0.01 µM, first compound 0.0949 µM",40.4%
same,"viability, T/C","second compound 0.01 µM, first compound 0.3 µM",26.5%
same,"viability, T/C","second compound 0.01 µM, first compound 0.949 µM",15.9%
same,"viability, T/C","second compound 0.01 µM, first compound 3 µM",9.46%
same,"viability, T/C","second compound 0.0316 µM, first compound 0.00949 µM",94%
same,"viability, T/C","second compound 0.0316 µM, first compound 0.03 µM",54.5%
same,"viability, T/C","second compound 0.0316 µM, first compound 0.0949 µM",32.8%
same,"viability, T/C","second compound 0.0316 µM, first compound 0.3 µM",19.2%
same,"viability, T/C","second compound 0.0316 µM, first compound 0.949 µM",10.6%
same,"viability, T/C","second compound 0.0316 µM, first compound 3 µM",6.13%
same,"viability, T/C","second compound 0.1 µM, first compound 0.00949 µM",53.9%
same,"viability, T/C","second compound 0.1 µM, first compound 0.03 µM",33.8%
same,"viability, T/C","second compound 0.1 µM, first compound 0.0949 µM",22.4%
same,"viability, T/C","second compound 0.1 µM, first compound 0.3 µM",8.1%
same,"viability, T/C","second compound 0.1 µM, first compound 0.949 µM",7.55%
same,"viability, T/C","second compound 0.1 µM, first compound 3 µM",3.21%
same,"viability, T/C","second compound 0.316 µM, first compound 0.00949 µM",30.7%
same,"viability, T/C","second compound 0.316 µM, first compound 0.03 µM",16.4%
same,"viability, T/C","second compound 0.316 µM, first compound 0.0949 µM",9.95%
same,"viability, T/C","second compound 0.316 µM, first compound 0.3 µM",4.19%
same,"viability, T/C","second compound 0.316 µM, first compound 0.949 µM",4.43%
same,"viability, T/C","second compound 0.316 µM, first compound 3 µM",3.42%
same,"viability, T/C","second compound 1 µM, first compound 0.00949 µM",20.1%
same,"viability, T/C","second compound 1 µM, first compound 0.03 µM",10.1%
same,"viability, T/C","second compound 1 µM, first compound 0.0949 µM",4.65%
same,"viability, T/C","second compound 1 µM, first compound 0.3 µM",3.78%
same,"viability, T/C","second compound 1 µM, first compound 0.949 µM",3.32%
same,"viability, T/C","second compound 1 µM, first compound 3 µM",0.47%
C[C@@H](NC(=O)c1ncnc(N)c1Cl)c1ncc(C(=O)Nc2cc(C(F)(F)F)c(Cl)cn2)s1 + CC(Nc1ncnc2nc[nH]c12)c1cc2cccc(Cl)c2c(=O)n1-c1ccccc1,IC50,second compound 0.0316 µM,> 10000 nM
same,IC50,second compound 0.1 µM,> 10000 nM
same,IC50,second compound 0.316 µM,> 10000 nM
same,IC50,second compound 1 µM,> 10000 nM
same,IC50,second compound 3.16 µM,> 10000 nM
same,IC50,second compound 10 µM,6160 nM
same,"viability, T/C",[1],92.6%
same,"viability, T/C",[2],89.9%
same,"viability, T/C",[3],93.7%
same,"viability, T/C",[4],83.4%
same,"viability, T/C",[5],105%
same,"viability, T/C",[6],79.1%
same,"viability, T/C",[7],84.3%
same,"viability, T/C",[8],87.2%
same,"viability, T/C",[9],90.1%
same,"viability, T/C",[10],105%
same,"viability, T/C",[11],108%
same,"viability, T/C",[12],88%
same,"viability, T/C",[13],94.5%
same,"viability, T/C",[14],107%
same,"viability, T/C",[15],94.3%
same,"viability, T/C",[16],95%
same,"viability, T/C",[17],105%
same,"viability, T/C",[18],80.5%
same,"viability, T/C",[19],88.1%
same,"viability, T/C",[20],105%
same,"viability, T/C",[21],96.7%
same,"viability, T/C",[22],91%
same,"viability, T/C",[23],102%
same,"viability, T/C",[24],61.9%
same,"viability, T/C","second compound 3.16 µM, first compound 0.0316 µM",107%
same,"viability, T/C","second compound 3.16 µM, first compound 0.1 µM",97.2%
same,"viability, T/C","second compound 3.16 µM, first compound 0.316 µM",104%
same,"viability, T/C","second compound 3.16 µM, first compound 1 µM",99.3%
same,"viability, T/C","second compound 3.16 µM, first compound 3.16 µM",93.3%
same,"viability, T/C","second compound 3.16 µM, first compound 10 µM",66.4%
same,"viability, T/C","second compound 10 µM, first compound 0.0316 µM",84.8%
same,"viability, T/C","second compound 10 µM, first compound 0.1 µM",91.7%
same,"viability, T/C","second compound 10 µM, first compound 0.316 µM",107%
same,"viability, T/C","second compound 10 µM, first compound 1 µM",95.5%
same,"viability, T/C","second compound 10 µM, first compound 3.16 µM",72.8%
same,"viability, T/C","second compound 10 µM, first compound 10 µM",33.5%
Cn1ncc(Cl)c1-c1cc(C(=O)NC(CN)Cc2cccc(F)c2)sc1Cl (stereo not drawn) + CC(Nc1ccc2c(c1)OCCn1cc(N3C(=O)OCC3C(F)F)nc1-2)C(N)=O,IC50,second compound 0.00316 µM,608 nM
same,IC50,second compound 0.01 µM,422 nM
same,IC50,second compound 0.0316 µM,339 nM
same,IC50,second compound 0.1 µM,226 nM
same,IC50,second compound 0.316 µM,64.6 nM
same,IC50,second compound 1 µM,< 31.6 nM
same,"viability, T/C",[25],82.7%
same,"viability, T/C",[26],73.8%
same,"viability, T/C",[27],48.5%
same,"viability, T/C",[28],45.4%
same,"viability, T/C",[29],39.2%
same,"viability, T/C",[30],10.5%
same,"viability, T/C",[31],106%
same,"viability, T/C",[32],76.3%
same,"viability, T/C",[33],44.6%
same,"viability, T/C",[34],44.1%
same,"viability, T/C",[35],34.3%
same,"viability, T/C",[36],8.87%
same,"viability, T/C",[1],103%
same,"viability, T/C",[2],88%
same,"viability, T/C",[3],45.6%
same,"viability, T/C",[4],29%
same,"viability, T/C",[5],23%
same,"viability, T/C",[6],5.6%
same,"viability, T/C",[7],88.5%
same,"viability, T/C",[8],77.6%
same,"viability, T/C",[9],36.3%
same,"viability, T/C",[10],21.9%
same,"viability, T/C",[11],16.6%
same,"viability, T/C",[12],4.47%
same,"viability, T/C",[13],64.6%
same,"viability, T/C",[14],39.7%
same,"viability, T/C",[15],27.7%
same,"viability, T/C",[16],14.7%
same,"viability, T/C",[17],13.5%
same,"viability, T/C",[18],3.25%
same,"viability, T/C",[19],45.1%
same,"viability, T/C",[20],25.5%
same,"viability, T/C",[21],12.5%
same,"viability, T/C",[22],11%
same,"viability, T/C",[23],10.1%
same,"viability, T/C",[24],1.75%
C[C@@H](NC(=O)c1ncnc(N)c1Cl)c1ncc(C(=O)Nc2cc(C(F)(F)F)c(Cl)cn2)s1 + CC(Nc1ccc2c(c1)OCCn1cc(N3C(=O)OCC3C(F)F)nc1-2)C(N)=O,IC50,second compound 0.00316 µM,> 10000 nM
same,IC50,second compound 0.01 µM,> 10000 nM
same,IC50,second compound 0.0316 µM,> 10000 nM
same,IC50,second compound 0.1 µM,5930 nM
same,IC50,second compound 0.316 µM,1850 nM
same,IC50,second compound 1 µM,344 nM
same,"viability, T/C",[25],83.2%
same,"viability, T/C",[26],87.1%
same,"viability, T/C",[27],93%
same,"viability, T/C",[28],99.1%
same,"viability, T/C",[29],113%
same,"viability, T/C",[30],75.8%
same,"viability, T/C",[31],103%
same,"viability, T/C",[32],101%
same,"viability, T/C",[33],96.2%
same,"viability, T/C",[34],102%
same,"viability, T/C",[35],108%
same,"viability, T/C",[36],72.4%
same,"viability, T/C",[1],98.6%
same,"viability, T/C",[2],107%
same,"viability, T/C",[3],101%
same,"viability, T/C",[4],104%
same,"viability, T/C",[5],93.7%
same,"viability, T/C",[6],56.1%
same,"viability, T/C",[7],97.4%
same,"viability, T/C",[8],105%
same,"viability, T/C",[9],96.4%
same,"viability, T/C",[10],108%
same,"viability, T/C",[11],72.8%
same,"viability, T/C",[12],31.1%
same,"viability, T/C",[13],85.9%
same,"viability, T/C",[14],92.4%
same,"viability, T/C",[15],87.3%
same,"viability, T/C",[16],67.5%
same,"viability, T/C",[17],34.4%
same,"viability, T/C",[18],12.8%
same,"viability, T/C",[19],56.2%
same,"viability, T/C",[20],54.4%
same,"viability, T/C",[21],51.4%
same,"viability, T/C",[22],35.8%
same,"viability, T/C",[23],13.7%
same,"viability, T/C",[24],4.09%

# From PubChem BioAssay AID1963983 (Molecular Pharmacology Branch, DTP, NCI, 2024)
